The source of these data is patent US11890288B2, “Sulfonamide or sulfinamide compound having effect of inducing BRD4 protein degradation and pharmaceutical use thereof” (MITSUBISHI TANABE PHARMA CORPORATION, priority 2020, dated 2024).

Usually IC50 stands for the point on the concentration scale where inhibition reaches its midpoint.

In assay [1] the test system is human chronic myeloid leukemia K562 cell. In words: Cytotoxic action on K562 cells (WST-8, 96 hr). It counts as cell-based. To be noted: K562, 96 hr. How it is done:
(§1) The cytotoxic action of the compound of the present invention against human cancer cells was evaluated in vitro. In this experiment, (+)-JQ1 (Nature volume 468, pages 1067-1073 (23 Dec. 2010)) known to have an inhibitory activity on the binding of BRD4 protein and a ligand therefor was used as a positive control drug. Respective cells were suspended in 10% FBS/RPMI1640, seeded in a 96 well plate and cultured at 5% CO2, 37° C. overnight. A test compound dissolved in DMSO was diluted with 10% FBS/RPMI1640 and added and the cells were further cultured for 96 hr. After culturing, the viable cell number was measured using a cell number measurement WST-8 kit (Kishida Chemical Co., Ltd.). As a control, the measurement was performed under conditions free of the test compound. The cytotoxic activity of the compound of the present invention against human prostate cancer LNCaP cells is shown in IC50 value in Table 1. The IC50 value is a concentration of the compound showing 50% cell survival rate when the cell survival rate thereof under compound untreated condition is 100%. It was calculated from the straight line connecting the cell survival rate at two points enclosing the 50% cell survival rate and the compound concentration. […]

Assay [2] concerns human large cell lung cancer NCI-H460 cell. In words: Cytotoxic action on NCI-H460 cells (WST-8, 96 hr). The class given is cell-based. As to conditions: NCI-H460, 96 hr. On the procedure: as §1
A general note: Tetrazolium dyes change colour on reduction, which living cells bring about.

Assay [3] has as its system human cisplatin-resistant ovarian cancer SK-OV-03 cell. In words: Cytotoxic action on SK-OV-03 cells (WST-8, 96 hr). The class given is cell-based. As to conditions: SK-OV-03, 96 hr. How it is done:
as §1

The subject of assay [4] is human prostate cancer LNCaP cells. In words: Cytotoxic action on LNCaP cells (WST-8, 96 hr). The class given is cell-based. As to conditions: 96 hr culture. The method in brief: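 Growth-inhibition format: 96 hr continuous exposure, 37° C, 5% CO2, 10% FBS/RPMI1640, WST-8 read-out. Values are IC50 against the untreated-control survival, taken from the line joining the two points around 50%.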

For a further assay, the system named is MDA-MB-436 w/o2 cells. In words: Cytotoxic action on MDA-MB-436 w/o2 cells that acquired resistance to conventional BRD4 degraders (WST-8, 96 hr). The class given is cell-based, human. On the procedure: The cytotoxic action of the compound of the present invention against cancer cells that acquired resistance to conventional BRD4 protein degradation inducing agents was evaluated in vitro. In this experiment, ARV-771 (Proc Natl Acad Sci USA. volume 113, pages 7124-7129 (28 Jun. 2016)) and MZ1 (ACS Chem Biol. Volume 10, pages 1770-1777 (21 Aug. 2015)), in which a ligand for VHL and BRD4 protein inhibitor are linked, were used as a conventional BRD4 protein degradation inducing agent serving as a comparison control. Human breast cancer MDA-MB-436 cells and MDA-MB-436 cells that acquired resistance to conventional BRD4 protein degradation inducing agents (MDA-MB-436 w/o2 cells) were suspended in 10% FBS/RPMI1640, seeded in a 96 well plate and cultured at 5% CO2, 37° C. overnight. A test compound dissolved in DMSO was diluted with 10% FBS/RPMI1640 and added and the cells were further cultured for 96 hr. After culturing, the viable cell number was measured using a cell number measurement WST-8 kit (Kishida Chemical Co., Ltd.). As a control, the measurement was performed under conditions free of the test compound. The cytotoxic activity of the compound of the present invention against each cell is shown in IC50 value in Table 4. The IC50 value is a concentration of the compound showing 50% cell survival rate when the cell survival rate thereof under compound untreated condition is 100%. It was calculated from the straight line connecting the cell survival rate at two points enclosing the 50% cell survival rate and the compound concentration. In addition, the tolerance (fold) was calculated by dividing the IC50 value in MDA-MB-436 w/o2 cells by the IC50 value in MDA-MB-436 cells.

The test system of assay [5] is human glioma U-87 MG cell. In words: Cytotoxic action on U-87 MG cells (WST-8, 96 hr). The class given is cell-based. On the procedure:
as §1

Assay [6] relates to human colon cancer HCT116 cell. In words: Cytotoxic action on HCT116 cells (WST-8, 96 hr). It counts as cell-based. As to conditions: HCT-116, HCT116, 96 hr. How it is done: as §1
Assay [7] relates to human bladder cancer 5637 cell. In words: Cytotoxic action on 5637 cells (WST-8, 96 hr). As to conditions: 5637, 96 hr. It counts as cell-based. How it is done: as §1
The target of a further assay is BRD4 protein (Homo sapiens (Human), UniProt O60885). In words: Inhibitory action on binding of BRD4 protein and acetylated histone H4 (TR-FRET). As to conditions: BRD4-1 (GST) and acetylated histone H4 peptide, 3 hr. How it is done:
The inhibitory action of the compound of the present invention on the binding of BRD4 protein and a ligand thereof (acetylated histone H4) was evaluated by the time-resolved fluorescence resonance energy transfer (TR-FRET) method using EPIgeneous™ Binding Domain Kit A (Cisbio), BRD4-1 (GST) (Reaction Biology Corp) and [Lys(Ac)5/8/12/16]-Histone H4(1-21)-GGK (Biotin) (Eurogentec). In this experiment, (+)-JQ1 (Nature volume 468, pages 1067-1073 (23 Dec. 2010)) known to have an inhibitory activity on the binding of BRD4 protein and acetylated histone H4 therefor was used as a positive control drug. A test compound dissolved in DMSO was diluted with attached Diluent Buffer, added to a 384 well white plate, and BRD4-1 (GST) and [Lys(Ac)5/8/12/16]-Histone H4(1-21)-GGK (Biotin) were further added. Thereafter, Streptavidin-d2 conjugate and Anti-GST-Eu^3+ Cryptate Conjugate were added and the cells were incubated at room temperature for 3 hr. The binding amount of the BRD4 protein and acetylated histone H4 was measured as the fluorescence intensity (excitation: 314 nm/emission: 620 nm and excitation: 314 nm/emission: 665 nm). […] It was calculated from the straight line connecting the degradation rate at two points enclosing the 50% fluorescence intensity and the compound concentration.

Assay [8] deals with human AR-V7 positive castration-resistant prostate cancer 22Rv1 cell. In words: Cytotoxic action on 22Rv1 cells (WST-8, 96 hr). The class given is cell-based. As to conditions: 22Rv1, 96 hr. On the procedure: as §1

Each structure is given as a SMILES string.

For the molecule `COC(=O)C[C@@H]1N=C(c2ccc(-c3ccc(C(=O)NCc4ccc(S(=O)(=O)Nc5ccc(C)c6c(C#N)c[nH]c56)cc4)cc3)cc2)c2c(sc(C)c2C)-n2c(C)nnc21` [Example 1, methyl [(6S)-4-{4′-[({4-[(3-cyano-4-methyl-1H-indol-7-yl)sulfamoyl]phenyl}methyl)carbamoyl][1,1′-biphenyl]-4-yl}-2,3,9-trimethyl-6H-thieno[3,2-f][1,2,4]triazolo[4,3-a][1,4]diazepin-6-yl]acetate], the IC50 stood at 1.7 nM in assay [1]; 28 nM in assay [2]; 41 nM in assay [3]; 0.14 nM in assay [4]; 0.51 nM in the assay with MDA-MB-436 w/o2 cells (Homo sapiens, MDA-MB-436 w/o2 cells, 96 hr); 6 nM in [5]. Further, the IC50 in assay [6] worked out at 8.8 nM; in assay [7], 1.9 nM; at BRD4 protein, 29 nM; in assay [8], 0.71 nM. Also, in the assay on MDA-MB-436 w/o2 cells (IC50 in MDA-MB-436 w/o2 cells divided by IC50 in MDA-MB-436 cells), the resistance amounted to 1.3 fold.
